Test results as given in ChEMBL document CHEMBL6078700, “Synthesis of novel deuterated EGFR/ALK dual-target inhibitors and their activity against non-small cell lung cancer” (Eur J Med Chem, 2025).

How the values were obtained:
NCI-H1975 [1] = assay: Induction of apoptosis in human NCI-H1975 cells assessed as viable cells at 10 nM incubated for 48 hrs by allo-Phycocyanin-Annexin V staining based flow cytometry (reference value: 93.6 %); format: functional; conditions: read-out: Activity
NCI-H1975 [2] = assay: Induction of apoptosis in human NCI-H1975 cells assessed as necrotic cells at 5 nM incubated for 48 hrs by allo-Phycocyanin-Annexin V staining based flow cytometry (reference value: 0.031 %); format: functional
NCI-H1975 [3] = assay: Induction of apoptosis in human NCI-H1975 cells assessed as late apoptotic cells at 1 nM incubated for 48 hrs by allo-Phycocyanin-Annexin V staining based flow cytometry (reference value: 4.08 %); format: functional
HK-2 = assay: Antiproliferative activity against human HK-2 cells incubated for 48 hrs by CCK8 assay; format: toxicity, cell-based; conditions: hk-2, 48 h
NCI-H1975 [4] = assay: Induction of apoptosis in human NCI-H1975 cells assessed as early apoptotic cells at 5 nM incubated for 48 hrs by allo-Phycocyanin-Annexin V staining based flow cytometry (reference value: 2.27 %); format: functional
[5] = Half life in Sprague-Dawley rat at 10 mg/kg, po; format: ADME, organism-based; conditions: in vivo
[6] = Half life in Sprague-Dawley rat at 1 mg/kg, iv; format: ADME, organism-based; conditions: in vivo
[7] = Cmax in Sprague-Dawley rat at 10 mg/kg, po; format: ADME, organism-based; conditions: in vivo
L02 = assay: Antiproliferative activity against human L02 cells incubated for 48 hrs by CCK8 assay; format: toxicity, cell-based; conditions: l02, 48 h
NCI-H1975 [8] = assay: Induction of apoptosis in human NCI-H1975 cells assessed as late apoptotic cells at 5 nM incubated for 48 hrs by allo-Phycocyanin-Annexin V staining based flow cytometry (reference value: 4.08 %); format: functional
[9] = Oral bioavailability in Sprague-Dawley rat at 10 mg/kg; format: ADME, organism-based; conditions: in vivo
NCI-H1975 [10] = assay: Induction of cell cycle arrest in human NCI-H1975 cells assessed as accumulation at G2/M phase at 5 nM incubated for 24 hrs by PI/RNase staining based flow cytometry (reference value: 32.71 %); format: functional
NCI-H1975 [11] = assay: Induction of apoptosis in human NCI-H1975 cells assessed as necrotic cells at 10 nM incubated for 48 hrs by allo-Phycocyanin-Annexin V staining based flow cytometry (reference value: 0.031 %); format: functional
[12] = MRT (0 to t) in Sprague-Dawley rat at 10 mg/kg, po; format: ADME, organism-based; conditions: in vivo
[13] = Antiproliferative activity against human THLE-3 cells incubated for 48 hrs by CCK8 assay; format: toxicity, cell-based; conditions: thle-3, 48 h
[14] = Antiproliferative activity against human HLF1 cells incubated for 48 hrs by CCK8 assay; format: toxicity, cell-based; conditions: hlf1, 48 h
NCI-H1975 [15] = assay: Antitumor activity against human NCI-H1975 cells xenografted in BALB/c-nu mouse at 15 mg/kg, po administered daily orally for 21 days relative to control; format: functional; conditions: Mus musculus, NCI-H1975, po, 504 h, time 21 day, read-out: TGI
BaF3 = assay: Antiproliferative activity against mouse BaF3 cells expressing EML4-ALK fusion incubated for 48 hrs by CCK8 assay; conditions: baf3
NCI-H1975 [16] = assay: Induction of apoptosis in human NCI-H1975 cells assessed as early apoptotic cells at 1 nM incubated for 48 hrs by allo-Phycocyanin-Annexin V staining based flow cytometry (reference value: 2.27 %); format: functional
NCI-H1975 [17] = assay: Induction of apoptosis in human NCI-H1975 cells assessed as late apoptotic cells at 10 nM incubated for 48 hrs by allo-Phycocyanin-Annexin V staining based flow cytometry (reference value: 4.08 %); format: functional
[18] = Tmax in Sprague-Dawley rat at 1 mg/kg, iv; format: ADME, organism-based; conditions: in vivo
NCI-H1975 [19] = assay: Antitumor activity against human NCI-H1975 cells xenografted in BALB/c-nu mouse at 5 mg/kg, po administered daily orally for 21 days relative to control; format: functional; conditions: Mus musculus, NCI-H1975, po, 504 h, time 21 day, read-out: TGI
[20] = Apparent oral clearance in Sprague-Dawley rat at 1 mg/kg, iv; format: ADME, organism-based; conditions: in vivo
NCI-H1975 [21] = assay: Induction of apoptosis in human NCI-H1975 cells assessed as viable cells at 1 nM incubated for 48 hrs by allo-Phycocyanin-Annexin V staining based flow cytometry (reference value: 93.6 %); format: functional; conditions: read-out: Activity
NCI-H522 = assay: Antiproliferative activity against human NCI-H522 cells expressing wild-type EGFR/ALK incubated for 48 hrs by CCK8 assay; conditions: nci-h522
[22] = Tmax in Sprague-Dawley rat at 10 mg/kg, po; format: ADME, organism-based; conditions: in vivo
NCI-H1975 [23] = assay: Induction of apoptosis in human NCI-H1975 cells assessed as viable cells at 5 nM incubated for 48 hrs by allo-Phycocyanin-Annexin V staining based flow cytometry (reference value: 93.6 %); format: functional; conditions: Homo sapiens, NCI-H1975, read-out: Activity
NCI-H1975 [24] = assay: Induction of cell cycle arrest in human NCI-H1975 cells assessed as accumulation at G2/M phase at 1 nM incubated for 24 hrs by PI/RNase staining based flow cytometry (reference value: 32.71 %); format: functional
NCI-H1975 [25] = assay: Induction of cell cycle arrest in human NCI-H1975 cells assessed as accumulation at S phase at 5 nM incubated for 24 hrs by PI/RNase staining based flow cytometry (reference value: 17.1 %); format: functional
[26] = Apparent volume of distribution during terminal phase in Sprague-Dawley rat at 1 mg/kg, iv; format: ADME, organism-based; conditions: in vivo
[27] = Antiproliferative activity against human NCI-H1975 cells expressing EGFR mutation incubated for 48 hrs by CCK8 assay; conditions: nci-h1975
NCI-H1975 [28] = assay: Induction of cell cycle arrest in human NCI-H1975 cells assessed as accumulation at G0/G1 phase at 5 nM incubated for 24 hrs by PI/RNase staining based flow cytometry (reference value: 50.19 %); format: functional
NCI-H1975 [29] = assay: Induction of cell cycle arrest in human NCI-H1975 cells assessed as accumulation at G2/M phase at 10 nM incubated for 24 hrs by PI/RNase staining based flow cytometry (reference value: 32.71 %); format: functional
NCI-H1975 [30] = assay: Induction of cell cycle arrest in human NCI-H1975 cells assessed as accumulation at S phase at 10 nM incubated for 24 hrs by PI/RNase staining based flow cytometry (reference value: 17.1 %); format: functional
NCI-H1975 [31] = assay: Induction of cell cycle arrest in human NCI-H1975 cells assessed as accumulation at S phase at 1 nM incubated for 24 hrs by PI/RNase staining based flow cytometry (reference value: 17.1 %); format: functional
NCI-H2228 = assay: Antiproliferative activity against human NCI-H2228 cells expressing EML4-ALK fusion incubated for 48 hrs by CCK8 assay; conditions: nci-h2228
NCI-H1975 [32] = assay: Induction of apoptosis in human NCI-H1975 cells assessed as necrotic cells at 1 nM incubated for 48 hrs by allo-Phycocyanin-Annexin V staining based flow cytometry (reference value: 0.031 %); format: functional
NCI-H1975 [33] = assay: Induction of cell cycle arrest in human NCI-H1975 cells assessed as accumulation at G0/G1 phase at 1 nM incubated for 24 hrs by PI/RNase staining based flow cytometry (reference value: 50.19 %); format: functional
NCI-H1975 [34] = assay: Induction of apoptosis in human NCI-H1975 cells assessed as early apoptotic cells at 10 nM incubated for 48 hrs by allo-Phycocyanin-Annexin V staining based flow cytometry (reference value: 2.27 %); format: functional
NCI-H1975 [35] = assay: Induction of cell cycle arrest in human NCI-H1975 cells assessed as accumulation at G0/G1 phase at 10 nM incubated for 24 hrs by PI/RNase staining based flow cytometry (reference value: 50.19 %); format: functional
NCI-H1975 [36] = assay: Antitumor activity against human NCI-H1975 cells xenografted in BALB/c-nu mouse at 30 mg/kg, po administered daily orally for 21 days relative to control; format: functional; conditions: Mus musculus, NCI-H1975, po, 504 h, time 21 day, read-out: TGI

- half-life [5]: 4.65 h
- half-life [6]: 1.06 h
- Cmax [7]: 169 ng/mL
- bioavailability [9]: 44.1%
- MRT last [12]: 3.57 h
- IC50 (BaF3): 2.4 nM
- Tmax [18]: 1.98 min
- CL/F [20]: 63.7 mL/min/kg
- IC50 (NCI-H522): 1960 nM
- Tmax [22]: 0.5 h
- Vz/F [26]: 5.9 L/kg
- IC50 (NCI-H2228): 21.5 nM
Structure (SMILES): [2H]C([2H])([2H])C([2H])([2H])[S+]([O-])c1ccccc1Nc1nc(Nc2cc(NC(=O)C=C)c(N(C)CCN(C)C)cc2OC)ncc1Cl (single isomer, unassigned; (-))
- viability at 0.01 µM (NCI-H1975 [1]): 46.8%
- Activity (NCI-H1975 [2]): 0.16%
- Activity (NCI-H1975 [3]): 7.98%
- Activity (HK-2): Non-toxic
- Activity (NCI-H1975 [4]): 22.8%
- Activity (L02): Non-toxic
- Activity (NCI-H1975 [8]): 14.3%
- Activity (NCI-H1975 [10]): 28.91%
- Activity (NCI-H1975 [11]): 0.22%
- Activity [13]: Non-toxic
- Activity [14]: Non-toxic
- inhibition in vivo at 15 mg/kg (NCI-H1975 [15]): 93.2%
- Activity (NCI-H1975 [16]): 16.6%
- Activity (NCI-H1975 [17]): 20.5%
- inhibition in vivo at 5 mg/kg (NCI-H1975 [19]): 80.3%
- viability at 0.001 µM (NCI-H1975 [21]): 75.4%
- viability at 0.005 µM (NCI-H1975 [23]): 62.8%
- Activity (NCI-H1975 [24]): 22.93%
- Activity (NCI-H1975 [25]): 3.78%
- IC50 [27]: 1.08 nM
- Activity (NCI-H1975 [28]): 67.31%
- Activity (NCI-H1975 [29]): 28.2%
- Activity (NCI-H1975 [30]): 3.84%
- Activity (NCI-H1975 [31]): 12.5%
- Activity (NCI-H1975 [32]): 0.071%
- Activity (NCI-H1975 [33]): 64.57%
- Activity (NCI-H1975 [34]): 32.5%
- Activity (NCI-H1975 [35]): 68.32%
- inhibition in vivo at 30 mg/kg (NCI-H1975 [36]): 97.2%
